In patent publication US20080161248A1, “Methods and Compositions for Therapeutic Treatment” (priority 2006, published 2008):

Legend:
[1] = system: mouse spleen cells, response to LPS; experiment: In vitro LPS assay on spleen cells; type: cell-based; conditions: high ([…]10^6 cells/well) and low (8×10^5 cells/well) cell concentration
Description: (§1) Animals: 8-9 weeks-old Lewis and Brown Norway male rats were obtained from Charles River Laboratories. General procedures for animal care and housing was in accordance with the National Research Council (NRC) Guide for the Care and Use of Laboratory Animals (1996) and the Animal Welfare Standards incorporated in 9 CFR Part 3, 1991.
(§2) Spleens were collected for use in in vitro Con A and LPS assays.
FIGS. 10 and 11 show the effect of quercetin and tacrolimus on response of mouse spleen cells to LPS at a high (1.6×10^6 cells/well) and low (8×10^5 cells/well) cell concentration, respectively.

[2] = Pharmacokinetics of FK506 i.v. with Quercetin i.p. in rats; type: in vivo, rat
Method: Animals: 8-9 weeks-old rats, e.g., Lewis and Brown Norway male rats, can be used. General procedures for animal care and housing are in accordance with the National Research Council (NRC) Guide for the Care and Use of Laboratory Animals (1996) and the Animal Welfare Standards incorporated in 9 CFR Part 3, 1991.
Treatment: Rats are treated as i.v with FK506 and i.p. with Quercetin at two different concentrations, 500 mg/kg or 200 mg/kg. Subsets of 3 Lewis rats per group are used for blood sampling at each time point (Groups 2-5) at described in the table below.
Plasma Blood Sample Collection: Whole blood is collected from the retro-orbital sinus under 60:40 CO2:O2 anesthesia using EDTA as the anticoagulant. Sample collection is performed at 9 time points: 5, 15, and 30 min and 1, 2, 4, 6, 8, & 24 hr after administration of FK 506. Three samples were collected from each rat per group (Groups 2-5). The first 2 samples are collected under anesthesia, after which the animal regained consciousness and is retained until the next collection interval. The third/last sample is also collected under anesthesia, however the animal is euthanatized prior to anesthetic recovery.
Whole blood samples are placed on dry ice after collection and stored frozen at […] (±10° C.) until analysis.
Drug levels are determined in collected samples using bioanalytical methods developed to detect parent drug levels known in the art.

[3] = Pharmacokinetics of FK 506 i.v. with LNS 0694 i.p. in Lewis rats; type: in vivo, rat; conditions: male Lewis rats; FK 506 1 mg/kg i.v.; LNS 0694 i.p. different doses
Method: as §1
Treatment: Lewis rats were treated as described in example 3. Subsets of 3 Lewis rats per group were used for blood sampling at each time point (Groups 2-5) at described in the table below.
Plasma Blood Sample Collection: Whole blood was collected from the retro-orbital sinus under 60:40 CO2:O2 anesthesia using EDTA as the anticoagulant. Sample collection was performed at 9 time points: 5, 15, and 30 min and 1, 2, 4, 6, 8, & 24 hr after administration of FK 506. Three samples were collected from each rat per group (Groups 2-5). The first 2 samples were collected under anesthesia, after which the animal regained consciousness and was retained until the next collection interval. […]
Drug levels were determined in collected whole blood samples using a bioanalytical method developed to detect parent drug levels.
Results: The pharmacokinetics parameters of FK 506 were determined in male Lewis rats after 1 mg/kg i.v. administration alone or in combination with i.p, administration of different doses of LNS 0694 (See FIG. 16).

[4] = system: LEW responders activated with Con A (lymphocyte proliferation); experiment: Con A stimulated proliferation of spleen cells of treated Lewis rats; type: cell-based, rat; conditions: LNS 0694 i.p. 30 minutes prior to FK506 1 mg/kg i.v.
Method: Animals: 8-9 weeks-old Lewis and Brown Norway male rats were obtained from Charles River Laboratories. […] Treatment: Lewis rats were treated with different single doses of LNS 0694i.p. 30 minutes prior to single i.v. injections of tacrolimus at a concentration of 1 mg/kg as described in the table below. Spleens were collected at 4 hr after administration of FK506 for use in the in vitro mixed lymphocyte reaction (MLR) and Con A assays. […] Varying numbers of responder cells were mixed with a constant number of stimulators (105) in 96-well, U-bottom cell culture plates to give a final responder:stimulator (R:S) ratio of 10:1,5: 1, 1:1 and 0.5:1 in 200 μl CM. Control wells for each cell suspension contained 10^5 responders alone in medium and 10^5 pooled, irradiated stimulators alone in medium (separate wells). For a positive proliferative response, each responder (10^5) was treated with 2.5 μg/ml Con A. […] Each well was pulsed with 1 μCi tritiated thymidine for 18±2 hours before automatic harvesting and analysis in a liquid scintillation counter.

[5] = system: LEW responder splenocytes with irradiated BN stimulators (lymphocyte proliferation); experiment: Mixed lymphocyte reaction (MLR) with spleen cells of treated Lewis rats; type: cell-based, rat; conditions: LNS 0694 50, 150, 300 mg/kg i.p. 30 minutes prior to FK506 1 mg/kg i.v.
Method: Animals: 8-9 weeks-old Lewis and Brown Norway male rats were obtained from Charles River Laboratories. […] Treatment: Lewis rats were treated with different single doses of LNS 0694i.p. 30 minutes prior to single i.v. injections of tacrolimus at a concentration of 1 mg/kg as described in the table below. Spleens were collected at 4 hr after administration of FK506 for use in the in vitro mixed lymphocyte reaction (MLR) and Con A assays. […] Mixed lymphocyte reactions: A single cell suspension of the spleen of each rat on test (LEW, responder) was prepared with a Dounce homogenizer and wash-medium. The cell suspension was depleted of red blood cells (treatment with NH4CL/Tris buffer) and washed twice with wash medium before resuspending in complete medium (CM; […] A single cell suspension of splenocytes from five Brown Norway rats (BN, stimulators) was prepared with the same method. The BN splenocytes were pooled and irradiated with 1,500-2,000 rad (cesium source) before use. Varying numbers of responder cells were mixed with a constant number of stimulators (105) in 96-well, U-bottom cell culture plates to give a final responder:stimulator (R:S) ratio of 10:1,5: 1, 1:1 and 0.5:1 in 200 μl CM. […] The results of the MLR assays [thymidine incorporation as counts per minute (CPM)] are expressed as mean ±SD.

[6] = system: mouse spleen cells, response to Con A; experiment: In vitro Con A assay on spleen cells; type: cell-based
Description: as §1, §2
Results: FIGS. 8 and 9 show the effect of quercetin and tacrolimus on response of mouse spleen cells to Con A at a high (1.6×10^6 cells/well) and low (8×10^5 cells/well) cell concentration, respectively.
Spleen cells were treated with Con A in the presence of vehicle, tacrolimus, quercetin or two different concentrations of tacrolimus (10^−8.2 and 10^−8.5 M) and increasing doses of quercetin at a high cell concentration (FIG. 14) or at a low cell concentration (FIG. 15). […] There was no significance difference between the effect of quercetin on tacrolimus induced cell suppression in vitro at the different concentrations used for quercetin.

[7] = in vivo; cited from earlier work
mdr1a knockout mice = conditions: cited from earlier work
[8] = higher 200 mg/kg quercetin dose i.p.

In the case of `O=c1c(O)c(-c2ccc(O)c(O)c2)oc2cc(O)cc(O)c12` [Quercetin, quercetin], the “effect on response of spleen cells to LPS (proliferation)” value [1] is reported as “no significant effect”, the “effect on peripheral bioavailability of FK506” value ([2]; Quercetin i.p. different doses) is reported as “increases the peripheral bioavailability of FK506 in a dose dependent manner” and the “effect on calculated AUC (0-infinity) of FK 506” value ([2]; Quercetin i.p. different doses, vs control group) is reported as “increases”. The “effect on Cmax of FK 506” value [2, 8] was “increase”, the “effect on Vd of FK 506” value [2, 8] was “decrease” and the “effect on clearance of FK 506” value [2, 8] was “decrease”. For the same compound, the “effect on peripheral bioavailability of FK506” value [3] was “increases the peripheral bioavailability of FK506 in a dose dependent manner”, the “effect on FK 506 inhibitory effect, responders activated with Con A” value [4] was “increased FK 506 inhibitory effect” and the “effect on FK 506 inhibitory effect in MLR” value [5] was “increased FK 506 inhibitory effect in a dose-dependent manner”. For the same compound, the “effect on tacrolimus induced cell suppression in vitro” value ([6]; Con A, tacrolimus 10^-8.2 and 10^-8.5 M, increasing doses of quercetin) was “did not impair”, the “effect on response of spleen cells to Con A (proliferation)” value ([6]; high ([…]10^6 cells/well) and low (8×10^5 cells/well) cell concentration) was “no significant effect” and the serum half-life [7] was 19 to 25 h.

In the case of `CC[C@H](C)[C@H]1O[C@]2(C=C[C@@H]1C)C[C@@H]1C[C@@H](C/C=C(\C)[C@@H](O[C@H]3C[C@H](OC)[C@@H](O[C@H]4C[C@H](OC)[C@@H](O)[C@H](C)O4)[C@H](C)O3)[C@@H](C)/C=C/C=C3\CO[C@@H]4[C@H](O)C(C)=C[C@@H](C(=O)O1)[C@]34O)O2` [avermectin], the “incidence of fetal cleft palate” value (mdr1a knockout mice) is listed as 100%.
